{"source": "paper PMC5796108", "about": "“Effects of Acanthopanax senticosus on Brain Injury Induced by Simulated Spatial Radiation in Mouse Model Based on Pharmacokinetics and Comparative Proteomics” (International Journal of Molecular Sciences, 2018)", "test": "Pharmacokinetics of syringin and eleutheroside E in mice's serum after oral AS extract (HPLC, PKsolver)", "type": "in vivo, Kun-Ming mice", "conditions": "oral AS extract 235.7 mg/kg; for MRT inf: read-out: MRT(0→∞)", "procedure": "The radiation lasted 30 min. […] The serum was preserved at −20 °C standby.\nThe content of syringin and eleutheroside E in the samples for each time points was detected by HPLC. An Agilent 1100 series liquid chromatograph (Agilent Technologies, Santa Clara, CA, USA), equipped with a quaternary gradient pump and a UV detector was used. A HPLC method was developed using a reversed-phase C18 column (Agilent-TC, 250 mm × 4.6 mm, 5 μm i.d.) with the column temperature at 30 °C. […] The retention times are 6.041 min and 8.500 min for Syringin and eleutheroside E respectively. Contents of syringin and eleutheroside E were expressed in each case as nanograms of syringin and eleutheroside E per milliliter of mice serum.", "key": {"[1]": {"conditions": "Radiation-AS-Treatment (60Co-γ, 4 Gy)"}, "[2]": {"conditions": "male, Kun-Ming, mouse, po, 235.7 mg/kg, Normal-AS-Treatment"}, "[3]": {"conditions": "male, Kun-Ming, mouse, po, 235.7 mg/kg, Radiation-AS-Treatment (60Co-γ, 4 Gy)"}}, "note": "Where two headings read alike, the source gives them in different places.", "data": [{"smiles": "COc1cc(/C=C/CO)cc(OC)c1O[C@@H]1O[C@H](CO)[C@@H](O)[C@H](O)[C@H]1O", "note": "[Syringin]", "values": [{"measurement": "CL", "setting": "Normal-AS-Treatment", "value": "2.91 × 10^0 ± 5.65 × 10^−1 L⋅h^−1⋅g^−1"}, {"measurement": "Vd", "setting": "Normal-AS-Treatment", "value": "2.72 × 10^1 ± 8.73 × 10^−1 L⋅g^−1"}, {"measurement": "CL", "setting": "[1]", "value": "1.54 × 10^0 ± 1.86 × 10^−1 L⋅h^−1⋅g^−1"}, {"measurement": "Tmax", "setting": "[1]", "value": "0.5 ± 0.237", "unit": "h"}, {"measurement": "Vd", "setting": "[1]", "value": "2.17 × 10^1 ± 9.19 × 10^−1 L⋅g^−1"}, {"measurement": "Tmax", "setting": "male, Kun-Ming, mouse, Normal-AS-Treatment, read-out: Tmax", "value": 0.5, "unit": "h"}, {"measurement": "AUC(0-inf)", "setting": "[2]", "value": 283, "unit": "ng·h/mL"}, {"measurement": "half-life", "setting": "[2]", "value": 6.47, "unit": "h"}, {"measurement": "Cmax", "setting": "male, Kun-Ming, mouse, po, 235.7 mg/kg, Normal-AS-Treatment, read-out: Cmax", "value": 170, "unit": "ng/mL"}, {"measurement": "MRT inf", "setting": "[2]", "value": 4.58, "unit": "h"}, {"measurement": "AUC(0-inf)", "setting": "[3]", "value": 534, "unit": "ng·h/mL"}, {"measurement": "half-life", "setting": "[3]", "value": 9.72, "unit": "h"}, {"measurement": "Cmax", "setting": "male, Kun-Ming, mouse, po, 235.7 mg/kg, Radiation-AS-Treatment (60Co-γ, 4 Gy), read-out: Cmax", "value": 212, "unit": "ng/mL"}, {"measurement": "MRT inf", "setting": "[3]", "value": 5.95, "unit": "h"}]}, {"smiles": "COc1cc([C@H]2OC[C@@H]3[C@@H]2CO[C@H]3c2cc(OC)c(O[C@@H]3O[C@H](CO)[C@@H](O)[C@H](O)[C@H]3O)c(OC)c2)cc(OC)c1O[C@@H]1O[C@H](CO)[C@@H](O)[C@H](O)[C@H]1O", "note": "[Eleutheroside E]", "values": [{"measurement": "AUC(0→∞)", "setting": "Normal-AS-Treatment", "value": "9.93 × 10^3 ± 1.81 × 10^3 ng⋅h⋅mL^−1"}, {"measurement": "CL", "setting": "Normal-AS-Treatment", "value": "8.30 × 10^−2 ± 7.32 × 10^−3 L⋅h^−1⋅g^−1"}, {"measurement": "Cmax", "setting": "Normal-AS-Treatment", "value": "2.07 × 10^3 ± 6.61 × 10^2 ng⋅mL^−1"}, {"measurement": "MRT(0→∞)", "setting": "Normal-AS-Treatment", "value": "14.8 ± 0.597", "unit": "h"}, {"measurement": "Tmax", "setting": "Normal-AS-Treatment", "value": "0.5 ± 0.192", "unit": "h"}, {"measurement": "t1/2", "setting": "Normal-AS-Treatment", "value": "17.2 ± 0.722", "unit": "h"}, {"measurement": "AUC(0→∞)", "setting": "[1]", "value": "1.20 × 10^4 ± 3.63 × 10^3 ng⋅h⋅mL^−1"}, {"measurement": "CL", "setting": "[1]", "value": "6.89 × 10^−2 ± 7.17 × 10^−3 L⋅h^−1⋅g^−1"}, {"measurement": "Cmax", "setting": "[1]", "value": "2.11 × 10^3 ± 5.93 × 10^2 ng⋅mL^−1"}, {"measurement": "MRT(0→∞)", "setting": "[1]", "value": "21.1 ± 0.701", "unit": "h"}, {"measurement": "Tmax", "setting": "[1]", "value": "0.5 ± 0.321", "unit": "h"}, {"measurement": "t1/2", "setting": "[1]", "value": "2.51 × 10^1 ± 5.56 × 10^0 h"}]}]}
